# Columns and labels:
# IDO1 [1] = molecular target: T1, IDO1 (Homo sapiens (Human), UniProt P14902); test: IDO1 Enzyme Assay; conditions: HIS-tagged recombinant IDO1, 40 nM
# IDO1 [2] = molecular target: T1, IDO1; test: IDO1 Cellular Assay in Hela Cells Stimulated with IFNγ; format: cell-based; conditions: Hela cells stimulated with IFNγ 100 ng/mL; read-out: IDO1 HELA Cell Assay, IC50
# IDO1 [3] = molecular target: T1, IDO1; test: IDO1 Cellular Assay in Frozen HEK293 Cells Transiently Transfected with Human IDO1; format: cell-based; conditions: HEK293 cells transiently transfected with human IDO1; read-out: IDO1 HEK293 Cell Assay, IC50
# Procedure: IDO1 Cellular Assay in Frozen HEK293 Cells Transiently Transfected with Human IDO1
# HEK293 cells were cultured in complete HEK293 culture medium (90% DMEM, 10% heat-inactivated fetal bovine serum). When reaching sub-confluent, the cells were trypsinized and neutralized with complete medium. […] Flag-IDO1 plasmid was added to the cell suspension at a concentration of 100 μg/mL. The cell-plasmid solutions were transferred to the OC-400 processing assembly (Maxcyte), 400 l/unit and the units were placed in a Maxcyte instrument to carry out flow electroporation for transfection. The cells were then transferred to a sterile 24-well cell culture plate to recover for 20-30 min at 37° C. in an incubator with 5% CO2.
# Frozen HEK293/IDO1 and HEK293 WT cells were thawed and transferred into HEK293 assay medium (99% complete HEK293 culture medium, 1% Pen/Strep) with 20 mL medium/vial of cells. The cells were spun down at 250 g in a table top centrifuge for 5 min and suspended in same volume of HEK293 assay medium. […] Sterile L-tryptophan were added to the cells with final concentration of 300 μM.
# HEK293/IDO1 and HEK293 WT cells were dispensed to the respective wells of 384-well assay plates containing the compounds. The plates were incubated for about 28-30 h at a 37° C., 5% CO2 incubator. […] The plates were centrifuged for 1 min at 200×g. The resulting fluorescence was measured in a Spectramax plate reader (Molecular Devices) with a 400 nm excitation filter and a 510 nm emission filter.
# [4] = read-out: IDO1 Enzyme Assay, IC50
# T1 sequence (P14902 whole entry): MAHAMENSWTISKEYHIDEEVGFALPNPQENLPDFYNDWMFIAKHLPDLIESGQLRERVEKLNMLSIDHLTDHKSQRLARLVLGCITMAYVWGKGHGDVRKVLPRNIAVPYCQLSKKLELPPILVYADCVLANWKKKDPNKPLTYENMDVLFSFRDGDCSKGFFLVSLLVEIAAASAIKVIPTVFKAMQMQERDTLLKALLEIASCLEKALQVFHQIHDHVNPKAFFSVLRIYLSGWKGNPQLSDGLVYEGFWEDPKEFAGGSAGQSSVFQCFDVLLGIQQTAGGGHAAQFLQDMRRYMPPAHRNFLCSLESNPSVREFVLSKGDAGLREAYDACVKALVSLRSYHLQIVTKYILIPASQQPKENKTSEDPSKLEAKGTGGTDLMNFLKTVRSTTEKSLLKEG
SMILES,IC50 (IDO1 [1]; [4]) [nM],IC50 (IDO1 [2]) [nM],IC50 (IDO1 [3]) [nM],"IC50 (IDO1 [1]; IDO1 Enzyme Assay, IC50, nM) [nM]"
"CC(C)OC(=O)[C@H](C)NP(=O)(CCSc1nonc1/C(=N/O)Nc1ccc(F)c(Br)c1)N[C@@H](C)C(=O)OC(C)C [Example 97, 1-methylethyl (2S,6S)-4-[2-({4-[N-(3-bromo-4-fluorophenyl)-N′-hydroxycarbamimidoyl]-1,2,5-oxadiazol-3-yl}sulfanyl)ethyl]-2,6,9-trimethyl-7-oxo-8-oxa-3,5-diaza-4-phosphadecan-1-oate 4-oxide]",132,380,745,
"Cc1nc(CSc2nonc2C(=NO)Nc2ccc(F)c(Br)c2)no1 [Example 155, N-(3-bromo-4-fluorophenyl)-N′-hydroxy-4-{[(5-methyl-1,2,4-oxadiazol-3-yl)methyl]sulfanyl}-1,2,5-oxadiazole-3-carboximidamide]",,301,218,77.7
"O/N=C(\Nc1ccc(F)c(Br)c1)c1nonc1SCC(O)c1ccccc1 (stereo not drawn) [Example 74, N-(3-bromo-4-fluorophenyl)-N′-hydroxy-4-[(2-hydroxy-2-phenylethyl)sulfanyl]-1,2,5-oxadiazole-3-carboximidamide]",503,388,579,
"CC(=O)CSc1nonc1/C(=N/O)Nc1ccc(F)c(Br)c1 [Example 115, N-(3-bromo-4-fluorophenyl)-N′-hydroxy-4-[(2-oxopropyl)sulfanyl]-1,2,5-oxadiazole-3-carboximidamide]",51,168,105,
"CC(=O)NCCSc1nonc1/C(=N/O)Nc1ccc(F)c(OC(F)(F)F)c1 [Example 52, N-{2-[(4-{N-[4-fluoro-3-(trifluoromethoxy)phenyl]-N′-hydroxycarbamimidoyl}-1,2,5-oxadiazol-3-yl)sulfanyl]ethyl}acetamide]",356,144,177,
"O=C(NCCSc1nonc1C(=NO)Nc1ccc(F)c(Br)c1)NCc1ccco1 [Example 131, N-(3-bromo-4-fluorophenyl)-4-[(2-{[(furan-2-ylmethyl)carbamoyl]amino}ethyl)sulfanyl]-N′-hydroxy-1,2,5-oxadiazole-3-carboximidamide]",,167,66.7,34.1
"N#Cc1cc(N/C(=N\O)c2nonc2SCCNC(=O)[C@H]2CC2(F)F)ccc1F [Example 187, (1R)-N-[2-({4-[N-(3-cyano-4-fluorophenyl)-N′-hydroxycarbamimidoyl]-1,2,5-oxadiazol-3-yl}sulfanyl)ethyl]-2,2-difluorocyclopropanecarboxamide]",86,272,140,
"O=C(CSc1nonc1/C(=N/O)Nc1ccc(F)c(Br)c1)N[C@H]1C[C@@H](O)[C@@H](O)C1 [Example 177, 2-({4-[N-(3-bromo-4-fluorophenyl)-N′-hydroxycarbamimidoyl]-1,2.5-oxadiazol-3-yl}sulfanyl)-N-[(1r,3R,4S)-3,4-dihydroxycyclopentyl]acetamide]",97.3,469,411,
"ON=C(Nc1ccc(F)c(Br)c1)c1nonc1SCc1nccs1 [Example 157, N-(3-bromo-4-fluorophenyl)-N′-hydroxy-4-[(1,3-thiazol-2-ylmethyl)sulfanyl]-1,2,5-oxadiazole-3-carboximidamide]",,113,104,63.8
"Nc1c(NCCSc2nonc2/C(=N/O)Nc2ccc(F)c(Br)c2)c(=O)c1=O [Example 73, 4-({2-[(2-amino-3,4-dioxocyclobut-1-en-1-yl)amino]ethyl}sulfanyl)-N-(3-bromo-4-fluorophenyl)-N′-hydroxy-1,2,5-oxadiazole-3-carboximidamide]",27.2,106,376,
"CN(C)C(=O)CSc1nonc1C(=NO)Nc1ccc(F)c(Br)c1 [Example 111, 2-({4-[N-(3-bromo-4-fluorophenyl)-N′-hydroxycarbamimidoyl]-1,2,5-oxadiazol-3-yl}sulfanyl)-N,N-dimethylacetamide]",,685,446,59.6
"CCCCNC(=O)NCCSc1nonc1C(=NO)Nc1ccc(F)c(Br)c1 [Example 127, N-(3-bromo-4-fluorophenyl)-4-({2-[(bulylcarbamoyl)amino]ethyl}sulfanyl)-N′-hydroxy-1,2,5-oxadiazole-3-carboximidamide]",33.5,219,115,

# These reach a lower IC50 (IDO1 [2]). Values come first.
IC50 (IDO1 [1]; [4]) [nM],IC50 (IDO1 [2]) [nM],IC50 (IDO1 [3]) [nM],"IC50 (IDO1 [1]; IDO1 Enzyme Assay, IC50, nM) [nM]",SMILES
27.9,20.9,26.2,,"CNC(=O)CCSc1nonc1/C(=N/O)Nc1ccc(F)c(Br)c1 [Example 70, 3-({4-[N-(3-bromo-4-fluorophenyl)-N′-hydroxycarbamimidoyl]-1,2,5-oxadiazol-3-yl}sulfanyl)-N-methylpropanamide]"
94.3,77.5,171,,"O=C(CSc1nonc1/C(=N/O)Nc1ccc(F)c(Br)c1)Nc1ccccc1 [Example 61, 2-({4-[N-(3-bromo-4-fluorophenyI)-N′-hydroxycarbamimidoyl]-1,2,5-oxadiazol-3-yl}sulfanyl)-N-phenylacetamide]"
22.8,75.9,11.5,,"O=C1CC[C@H](CSc2nonc2/C(=N/O)Nc2ccc(F)c(Br)c2)N1 [Example 83, N-(3-bromo-4-fluorophenyl)-N′-hydroxy-4-({[(2R)-5-oxopyrrolidin-2-yl]methyl}sulfanyl)-1,2,5-oxadiazole-3-carboximidamide]"
,41,26.1,31.4,"ON=C(Nc1ccc(F)c(Br)c1)c1nonc1SCCn1cncn1 [Example 154, N-(3-bromo-4-fluorophenyl)-N′-hydroxy-4-{[2-(1H-1,2,4-triazol-1-yl)ethyl]sulfanyl}-1,2,5-oxadiazole-3-carboximidamide]"
23.2,22.4,20.6,,"CC(=O)NCCSc1nonc1/C(=N/O)Nc1cccc(Br)c1 [Example 59, N-[2-({4-[N-(3-bromophenyl)-N′-hydroxycarbamimidoyl]-1,2,5-oxadiazol-3-yl}sulfanyl)ethyl]acetamide]"
71.9,39.7,39.7,,"OCCCSc1nonc1/C(=N/O)Nc1ccc(F)c(Br)c1 [Example 19, (Z)-N-(3-bromo-4-fluorophenyl)-N′-hydroxy-4-((3-hydroxypropyl)thio)-1,2,5-oxadiazole-3-carboximidamide]"
125,37.9,78.1,,"N#CC12CC(CSc3nonc3/C(=N/O)Nc3ccc(F)c(Br)c3)(C1)C2 [Example 80, N-(3-bromo-4-fluorophenyl)-4-{[(3-cyanobicyclo[1.1.1]pent-1-yl)methyl]sulfanyl}-N′-hydroxy-1,2,5-oxadiazole-3-carboximidamide]"
39.3,14.5,17.7,,"N#CCSc1nonc1/C(=N/O)Nc1ccc(F)c(Br)c1 [Example 67, N-(3-bromo-4-fluorophenyl)-4-[(cyanomethyl)sulfanyl]-N′-hydroxy-1,2,5-oxadiazole-3-carboximidamide]"
79.5,72.4,56.9,,"NS(=O)(=O)NCCSc1nonc1/C(=N/O)Nc1ccc(F)c(Br)c1 [Example 3, (Z)—N-(3-Bromo-4-fluorophenyl)-N′-hydroxy-4-((2-(sulfamoylamino)ethyl)thio)-1,2,5-oxadiazole-3-carboximidamide]"
,43.4,47.5,78.6,"ON=C(Nc1ccc(F)c(Br)c1)c1nonc1SCCn1ccnc1 [Example 172, N-(3-bromo-4-fluorophenyl)-N′-hydroxy-4-{[2-(1H-imidazol-1-yl)ethyl]sulfanyl}-1,2,5-oxadiazole-3-carboximidamide]"
,69.4,65.7,85.4,"Cn1ccnc1CSc1nonc1C(=NO)Nc1ccc(F)c(Br)c1 [Example 153, N-(3-bromo-4-fluorophenyl)-N′-hydroxy-4-{[(1-methyl-1H-imidazol-2-yl)methyl]sulfanyl}-1,2,5-oxadiazole-3-carboximidamide]"
20.2,67.8,261,,"CCNc1c(NCCSc2nonc2/C(=N/O)Nc2ccc(F)c(Br)c2)c(=O)c1=O [Example 55, N-(3-bromo-4-fluorophenyl)-4-[(2-{[2-(ethylamino)-3,4-dioxocyclobut-1-en-1-yl]amino}ethyl)sulfanyl]-N′-hydroxy-1,2,5-oxadiazole-3-carboximidamide]"
102,40.6,78.1,,"O=S1(=O)CCC(Sc2nonc2/C(=N/O)Nc2ccc(F)c(Br)c2)CC1 [Example 82, N-(3-bromo-4-fluorophenyl)-4-[(1,1-dioxidotetrahydro-2H-thiopyran-4-yl)sulfanyl]-N′-hydroxy-1,2,5-oxadiazole-3-carboximidamide]"

# From patent US10538497B2, “Compounds as indoleamine 2,3-dioxygenase inhibitors” (Merck Sharp & Dohme Corp., priority 2015, dated 2020)
